The record followed here is BindingDB's records for doi:10.1016/j.chembiol.2004.11.007 (University of Sheffield, 2005).

The assay concerns the target Calmodulin-1 (Homo sapiens, UniProt P0DP23). Kind of assay: Fluorescence spectroscopy. On the procedure:
Experiments were conducted with HITACHI-4500 and Shimadzu RF-5301 fluorescence spectrophotometer.
As for `O=S(=O)(Nc1ccc(NS(=O)(=O)c2cccc3ccccc23)cc1)c1cccc2ccccc12` [BN1], the equilibrium dissociation constant (Kd) – broadly, the constant that tells how readily two partners part at equilibrium – is 0.07 µM.
For `O=S(=O)(Nc1cccc(NS(=O)(=O)c2cccc3ccccc23)c1)c1cccc2ccccc12` [BN2], the dissociation constant (Kd) is 0.01 µM.
The value for `COC(=O)[C@@H](CC(=O)c1cccc(C(=O)C[C@@H](Cc2c[nH]c3ccccc23)C(=O)OC)c1)Cc1c[nH]c2ccccc12` [BT1] was 10 µM.
`COC(=O)[C@@H](CC(=O)Cc1ccc(/C=C/c2ccc(CC(=O)C[C@@H](Cc3c[nH]c4ccccc34)C(=O)OC)cc2)cc1)Cc1c[nH]c2ccccc12` [BT2] returned a dissociation constant Kd of 9 µM.
